Measurements from patent US20190054067A1, “COMPOSITIONS AND METHODS FOR TREATING COMPULSIVE-LIKE BEHAVIOR IN A SUBJECT” (UNIVERSITY OF THE SCIENCES, priority 2016, published 2019).

Assays:
[1] = cited from earlier work
[2] = biological target: low sensitivity (LS) α4β2 receptors (Homo sapiens, UniProt P17787+P43681); settings: cited from earlier work
[3] = system: compulsive-like BIG male mice; assay: compulsive-like marble burying (MB) behavior; type: in vivo, Mus musculus; settings: for marble-burying behavior (marbles at least 2/3 buried) vs control: acute, 2 h after administration; for suppression of MB vs control: chronic, fifth week (day 31), 2 h after injection
Procedure: (§1) Compulsive-like BIG male mice, Mus musculus, were raised on wood shavings in polypropylene cages (27×17×12 cm) under controlled temperature (22±1° C.) and light (12:12 light-dark cycle) with free access to food (Purina Mills, Lab Diet Mouse Diet #5015, St. Louis, Mo.) and water. Animals were approximately 12-16 weeks of age at the start of each experiment.
(§2) Deformylflustrabromine hydrochloride (dFBr; Abcam Biochemicals) was dissolved in physiological saline (pH=6.7) to yield final doses of 2.0 mg/kg (0.27 mg/mL), 4 mg/kg (0.53 mg/mL) and 6 mg/kg (0.80 mg/mL). Saline was used as a vehicle control (0 mg/kg). A mouse of 40 g received an injection volume of 0.3 mL. Injection volumes were proportionally adjusted according to the body weight of individual animals.
(§3) Acute Study: Male BIG mice were divided into four treatment groups comprising vehicle (sterile saline), 2 mg/kg, 4 mg/kg and 6 mg/kg. Animals in each group (n=12 per group) were tested for nesting on day 1, MB on day 3 and open field (OF) on day 5. On the first day of testing animals randomly received dFBr or vehicle subcutaneously and in subsequent tests received the same dose. Days 2 and 4 were employed to avoid any residual effects of dFBr from previous administration. For nesting, data were collected after 1, 2, 3, 4, 5 and 24 h due to the progressive nature of the NB (The BIG mice typically get excited and indulge in excessive and repetitive NB when introduced to cotton for the first 3-4 h in the light cycle. This excessive and repetitive nesting activity resumes again in the dark cycle). MB and OF behavior was performed 2 h after dFBr administration (FIG. 1).
(§4) Chronic Study; Since the foundation of the animal model was established through effective reversal of compulsive-like NB and MB behaviors by chronic fluoxetine treatment, a chronic regimen was also conducted to establish the sustained and long term effects of dFBr on NB and MB. Animals belonging to 0, 2, 4 and 6 mg/kg dose group (n=12 per group) received single subcutaneous injection of dFBr or saline daily for 32 days. NB, MB and OF behaviors were assessed in the final week (weeks 5) after dFBr administration (NB after 1, 2, 3, 4, 5 and 24 h, and MB after 2 h of drug injection). NB was performed on day 30, MB on day 31 and OF on day 32 (FIG. 1).
The marble-burying test is an effective test for determining compulsive-like behavior in mice. […] Two hours after dFBr administration, compulsive-like male mice were individually introduced to a polypropylene cage (37×21×14 cm) containing 20 glass marbles (10 mm in diameter) evenly spaced on 5 cm deep wood chip bedding without access to food or water for 20 min. Testing was carried out in the testing room separate from the housing room. The total number of marbles buried at least ⅔ in the 20-min period was quantified as compulsive-like digging behavior. After the 20-min test, the animals were returned to their home cages.
(§5) Statistical analysis was performed in Graphpad Prism (GraphPad Software, Inc) and Statistical Analysis System Software (Version 9.4, Cary, N.C.). Nest-building (grams of cotton), marble burying (number of marbles at least ⅔ buried) and open field measures (time in center and total distance travelled) were expressed as the mean±standard error of the mean (SEM). The nest building data were shown as grams of cotton used, whereas the statistical analysis was conducted on the square-root transformed nesting scores in order to normalize the data (Bult & Lynch, 2000, Behavior Genetics 30:193-206). Nesting scores at different time points, marble burying and open field results were analyzed by one-way analysis of variance (ANOVA), whereas overall drug and drug by time interaction effect between 0-5 hours was done by two-way analysis of variance (ANOVA). Pairwise comparisons for significant differences were tested by the post-hoc Bonferroni multiple comparison test. A probability level of p<0.05 was used as an index of statistical significance in all cases.

[4] = system: compulsive-like BIG male mice; assay: compulsive-like nest building (NB) behavior; type: in vivo, Mus musculus; settings: for overall nesting scores vs control (saline) / overall nesting scores vs control: 0-24 h; for suppression of NB vs control: chronic (daily s.c., tested day 30); for overall nesting scores vs control: chronic; for effect on NB (ANOVA over dose groups): chronic, 2, 4 and 6 mg/kg groups
Procedure: as §1, §2, §3, §4
Nest-building behavior was performed to assess compulsive-like behavior in the mice. For both acute and chronic studies, immediately following subcutaneous injection of dFBr, compulsive-like male mice were singly housed and provided with a pre-weighed roll of cotton (Mountain Mist cotton batting, Troy, Inc., Chicago, Ill.) in the cage-top food hopper. The cotton roll was weighed after 1, 2, 3, 4, 5 and 24 hours. Nesting behavior was quantified by the grams of cotton used during each testing period.
as §5

[5] = system: compulsive-like BIG male mice; assay: open field (OF) test, anxiety-like and locomotor behavior; type: in vivo, Mus musculus
Procedure: as §1, §2
Acute Study: Male BIG mice were divided into four treatment groups comprising vehicle (sterile saline), 2 mg/kg, 4 mg/kg and 6 mg/kg. Animals in each group (n=12 per group) were tested for nesting on day 1, MB on day 3 and open field (OF) on day 5. On the first day of testing animals randomly received dFBr or vehicle subcutaneously and in subsequent tests received the same dose. Days 2 and 4 were employed to avoid any residual effects of dFBr from previous administration. […]
as §4, with “Animals belonging to 0, 2, 4 and 6 mg/kg dose group (n=12 per group) received single subcutaneous injection of dFBr or saline daily for 32 days.” left out, “NB was performed on day 30, MB on day 31 and OF on day 32 (FIG. 1).” left out
Anxiety-like behaviors were determined through the open field test. […] The animals were placed in the center of the open field, and their behavior was video taped for 3 min and analyzed with the aid of ANYMAZE™ video tracking software (Stoelting Co., Ill.). The time spent in the center (anxiety-like measure) and total distance travelled (locomotion) in the entire open field were measured. […]
Statistical analysis was performed in Graphpad Prism (GraphPad Software, Inc) and Statistical Analysis System Software (Version 9.4, Cary, N.C.). Nest-building (grams of cotton), marble burying (number of marbles at least ⅔ buried) and open field measures (time in center and total distance travelled) were expressed as the mean±standard error of the mean (SEM). […] Nesting scores at different time points, marble burying and open field results were analyzed by one-way analysis of variance (ANOVA), whereas overall drug and drug by time interaction effect between 0-5 hours was done by two-way analysis of variance (ANOVA). […]

[6] = biological target: high sensitivity (HS) α4β2 receptors (Homo sapiens, UniProt P17787+P43681); settings: cited from earlier work
[7] = system: compulsive-like BIG mice; settings: cited from earlier work
[8] = system: compulsive-like BIG male mice; settings: compulsive-like BIG mice (Greene-Schloesser et al., 2011); cited from earlier work
[9] = system: compulsive-like BIG male mice; settings: compulsive-like BIG mice (Greene-Schloesser et al., 2011); cited from earlier work; remark: listed apart in the source
[10] = acute, 0, 2, 4, 6 mg/kg s.c., 2 h after administration
[11] = chronic regimen (day 32), 0, 2, 4, 6 mg/kg

Chain of low sensitivity (LS) α4β2 receptors (P43681 29-627 limits assumed): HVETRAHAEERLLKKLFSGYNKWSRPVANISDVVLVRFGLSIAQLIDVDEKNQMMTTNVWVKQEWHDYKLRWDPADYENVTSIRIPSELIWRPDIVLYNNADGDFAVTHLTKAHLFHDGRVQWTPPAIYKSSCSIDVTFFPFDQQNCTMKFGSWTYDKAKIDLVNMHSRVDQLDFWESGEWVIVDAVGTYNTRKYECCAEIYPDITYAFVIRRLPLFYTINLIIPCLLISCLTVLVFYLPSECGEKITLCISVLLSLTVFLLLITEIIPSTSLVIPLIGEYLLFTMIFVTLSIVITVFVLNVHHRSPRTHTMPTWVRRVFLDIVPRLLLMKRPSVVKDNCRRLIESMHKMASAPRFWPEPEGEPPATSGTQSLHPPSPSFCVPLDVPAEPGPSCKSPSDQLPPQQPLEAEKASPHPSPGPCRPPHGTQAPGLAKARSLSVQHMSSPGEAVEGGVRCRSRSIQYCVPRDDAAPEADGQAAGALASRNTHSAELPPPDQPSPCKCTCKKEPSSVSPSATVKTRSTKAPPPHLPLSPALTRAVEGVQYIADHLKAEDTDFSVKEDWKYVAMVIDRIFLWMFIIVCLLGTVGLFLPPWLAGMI
Chain of low sensitivity (LS) α4β2 receptors (P17787 26-502): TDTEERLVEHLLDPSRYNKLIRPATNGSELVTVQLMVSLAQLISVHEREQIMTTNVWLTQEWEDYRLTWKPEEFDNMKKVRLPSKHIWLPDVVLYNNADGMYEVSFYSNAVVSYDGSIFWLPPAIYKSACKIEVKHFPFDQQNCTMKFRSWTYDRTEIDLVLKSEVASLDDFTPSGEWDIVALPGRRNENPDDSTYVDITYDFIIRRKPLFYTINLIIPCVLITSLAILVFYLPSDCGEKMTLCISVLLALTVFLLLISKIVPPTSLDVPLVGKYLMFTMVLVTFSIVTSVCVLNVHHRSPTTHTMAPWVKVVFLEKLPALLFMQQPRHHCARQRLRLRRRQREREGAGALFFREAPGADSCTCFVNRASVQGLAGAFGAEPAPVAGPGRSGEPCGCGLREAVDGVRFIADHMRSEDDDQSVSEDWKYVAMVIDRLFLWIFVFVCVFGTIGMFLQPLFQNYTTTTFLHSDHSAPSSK
Chain of high sensitivity (HS) α4β2 receptors (P43681 29-627 limits assumed): as the sequence (P43681 29-627 limits assumed) above
Chain of high sensitivity (HS) α4β2 receptors (P17787 26-502): as the sequence (P17787 26-502) above

SMILES: C=CC(C)(C)c1[nH]c2cc(Br)ccc2c1CCNC [dFBr, 2-[6-bromo-2-(2-methylbut-3-en-2-yl)-1H-indol-3-yl]-N-methylethanamine]
- amount reaching the cerebrospinal fluid ([1]; after 90 min of subcutaneous administration): around 36%
- time of peak levels in the cerebrospinal fluid ([1]; rats, after administration): 90 min
- potentiation of acetylcholine-induced whole cell responses [2]: 260%
- EC50 ([2]; read-out: EC50 of potentiation): 2.5 µM
- marble-burying behavior (marbles at least 2/3 buried) vs control ([3]; 2 mg/kg s.c.): decreased marble-burying behavior
- marble-burying behavior (marbles at least 2/3 buried) vs control ([3]; 4 mg/kg s.c.): decreased marble-burying behavior
- marble-burying behavior (marbles at least 2/3 buried) vs control ([3]; 6 mg/kg s.c.): decreased marble-burying behavior
- reduction of MB behavior vs control ([3]; chronic regimen, 2 mg/kg, 2 h time point): not significant
- suppression of MB vs control ([3]; 4 mg/kg): maximum suppression of MB
- suppression of MB vs control ([3]; 6 mg/kg): maximum suppression of MB
- nesting (cotton used) vs control (saline) ([4]; acute, 2 mg/kg s.c., 0-1 h): no significant attenuation of nesting
- overall nesting scores vs control (saline) ([4]; acute, 2 mg/kg s.c.): significantly below the control group
- nesting (cotton used) vs control (saline) ([4]; acute, 2 mg/kg s.c., 1-2 h): no significant effect
- nesting (cotton used) vs control (saline) ([4]; acute, 2 mg/kg s.c., 2-3 h): No significant difference
- nesting (cotton used) vs control (saline) ([4]; acute, 2 mg/kg s.c., 3-4 h): not significantly different
- nesting (cotton used) vs control (saline) ([4]; acute, 2 mg/kg s.c., 4-5 h): not significantly different
- nesting (cotton used) vs control (saline) ([4]; acute, 2 mg/kg s.c., 5-24 h): suppressed the nesting score significantly
- fractional nesting score (nesting score divided by average of vehicle group) ([4]; acute, 2 mg/kg s.c., first 5 hours): ~1
- nesting (cotton used) vs control (saline) ([4]; acute, 2 mg/kg s.c., overall 0-5 h): did not attenuate nesting
- time of greatest suppression of nesting (fractional nesting score) ([4]; acute, 4 mg/kg s.c.): 1 to 2 h
- nesting (cotton used) vs control (saline) ([4]; acute, 4 mg/kg s.c., 0-1 h): no significant attenuation of nesting
- overall nesting scores vs control (saline) ([4]; acute, 4 mg/kg s.c.): significantly below the control group
- nesting (cotton used) vs control (saline) ([4]; acute, 4 mg/kg s.c., 1-2 h): significantly attenuated nesting
- nesting (cotton used) vs control (saline) ([4]; acute, 4 mg/kg s.c., 2-3 h): No significant difference
- nesting (cotton used) vs control (saline) ([4]; acute, 4 mg/kg s.c., 3-4 h): significantly reduced
- nesting (cotton used) vs control (saline) ([4]; acute, 4 mg/kg s.c., 4-5 h): not significantly different
- nesting (cotton used) vs control (saline) ([4]; acute, 4 mg/kg s.c., 5-24 h): suppressed the nesting score significantly
- nesting (cotton used) vs control (saline) ([4]; acute, 4 mg/kg s.c., overall 0-5 h): significantly reduced
- time of greatest suppression of nesting (fractional nesting score) ([4]; acute, 6 mg/kg s.c.): 1 to 2 h
- nesting (cotton used) vs control (saline) ([4]; acute, 6 mg/kg s.c., 0-1 h): no significant attenuation of nesting
- overall nesting scores vs control (saline) ([4]; acute, 6 mg/kg s.c.): significantly below the control group
- nesting (cotton used) vs control (saline) ([4]; acute, 6 mg/kg s.c., 1-2 h): significantly attenuated nesting
- nesting (cotton used) vs control (saline) ([4]; acute, 6 mg/kg s.c., 2-3 h): significantly reduced
- nesting (cotton used) vs control (saline) ([4]; acute, 6 mg/kg s.c., 3-4 h): significantly reduced
- nesting (cotton used) vs control (saline) ([4]; acute, 6 mg/kg s.c., 4-5 h): not significantly different
- nesting (cotton used) vs control (saline) ([4]; acute, 6 mg/kg s.c., 5-24 h): suppressed the nesting score significantly
- nesting (cotton used) vs control (saline) ([4]; acute, 6 mg/kg s.c., overall 0-5 h): significantly reduced
- suppression of NB vs control ([4]; 2 mg/kg, 1-2 h): main attenuating effects
- suppression of NB vs control ([4]; 4 mg/kg, 0-1 h): most effective doses
- suppression of NB vs control ([4]; 6 mg/kg, 0-1 h): most effective doses
- suppression of NB vs control ([4]; 6 mg/kg, 1-2 h): main attenuating effects
- overall nesting scores vs control ([4]; 2 mg/kg): significantly below the control group
- overall nesting scores vs control ([4]; 4 mg/kg): significantly below the control group
- overall nesting scores vs control ([4]; 6 mg/kg): significantly below the control group
- effect on NB (ANOVA over dose groups) ([4]; 2-3 h): No significant effect
- effect on NB (ANOVA over dose groups) ([4]; 3-4 h): No significant effect
- effect on NB (ANOVA over dose groups) ([4]; 4-5 h): No significant effect
- time spent in center of the OF (anxiety-like) [5, 10]: No significant differences
- total distance traveled (locomotor activity) [5, 10]: not different among the treatment groups
- time in center [5, 11]: did not differ among treatment groups
- total distance [5, 11]: did not differ among treatment groups
- potentiation of acetylcholine-induced whole cell responses [6]: 370%
- EC50 ([6]; read-out: EC50 of potentiation): 40 µM

SMILES: CNCCC(Oc1ccc(C(F)(F)F)cc1)c1ccccc1 (centres unmarked) [fluoxetine]
- overall wheel-running locomotion [7]: failed to reduce
- NB behavior [8]: significantly attenuated
- MB behavior [9]: significantly attenuated
